Consider 7 molecules from article PMC3539767 (Bioorganic & medicinal chemistry letters, 2012).

pEC50, pIC50: −log10 of the molar value. Where only a bound is given, the exact number is not on record here.

In one data set the target is rat mGlu5 (Rattus norvegicus, UniProt P31424). Description: calcium mobilization PAM assay, high-expressing rat mGlu5 HTS cell line. It counts as cell-based. The settings on record: for allosteric agonist activity: rat mGlu5 (ago-PAM); for % Glu Max (rmGlu5): rat mGlu5 cell line; for mGlu5 PAM activity: rat mGlu5, high expressing rat cell line. A general note: Calcium assays in cells follow changes in intracellular calcium, usually with a dye or a luminescent sensor.
Chain of rat mGlu5 (P31424 21-1203): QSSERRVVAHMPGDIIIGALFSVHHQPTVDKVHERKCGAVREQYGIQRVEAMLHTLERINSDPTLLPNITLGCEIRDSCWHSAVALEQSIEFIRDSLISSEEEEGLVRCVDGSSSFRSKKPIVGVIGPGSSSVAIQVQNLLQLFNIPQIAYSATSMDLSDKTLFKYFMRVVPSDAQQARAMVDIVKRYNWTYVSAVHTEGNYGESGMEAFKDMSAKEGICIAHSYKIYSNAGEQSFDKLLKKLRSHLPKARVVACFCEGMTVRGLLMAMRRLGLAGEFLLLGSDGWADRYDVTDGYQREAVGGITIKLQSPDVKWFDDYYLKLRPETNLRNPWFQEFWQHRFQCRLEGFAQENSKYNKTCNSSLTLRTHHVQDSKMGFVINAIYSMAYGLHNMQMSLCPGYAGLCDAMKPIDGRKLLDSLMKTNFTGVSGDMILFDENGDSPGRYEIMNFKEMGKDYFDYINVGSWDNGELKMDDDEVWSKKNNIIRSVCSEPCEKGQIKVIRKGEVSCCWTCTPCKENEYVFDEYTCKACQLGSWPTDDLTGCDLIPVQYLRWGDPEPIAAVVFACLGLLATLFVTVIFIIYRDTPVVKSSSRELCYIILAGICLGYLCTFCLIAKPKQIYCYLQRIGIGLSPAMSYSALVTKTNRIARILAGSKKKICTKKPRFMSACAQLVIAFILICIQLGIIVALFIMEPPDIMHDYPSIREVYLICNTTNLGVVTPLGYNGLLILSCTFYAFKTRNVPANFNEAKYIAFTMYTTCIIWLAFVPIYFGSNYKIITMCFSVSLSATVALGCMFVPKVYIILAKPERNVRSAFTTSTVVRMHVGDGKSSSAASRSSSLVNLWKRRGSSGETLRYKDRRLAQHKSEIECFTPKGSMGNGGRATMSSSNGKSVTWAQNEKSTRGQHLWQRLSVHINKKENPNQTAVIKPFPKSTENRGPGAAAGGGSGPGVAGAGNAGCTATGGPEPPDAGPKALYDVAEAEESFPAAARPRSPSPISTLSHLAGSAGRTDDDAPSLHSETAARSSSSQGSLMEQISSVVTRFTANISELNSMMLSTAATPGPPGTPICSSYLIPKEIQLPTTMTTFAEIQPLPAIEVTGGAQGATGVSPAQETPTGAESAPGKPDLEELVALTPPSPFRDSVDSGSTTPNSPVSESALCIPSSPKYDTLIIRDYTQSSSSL

A further data set has as its target human mGlu5 (Homo sapiens, UniProt P41594). The experiment in a line: PAM assay in lower expressing human mGlu5 cell line. It counts as cell-based.
In a further data set the test system is Ca. Description: cardiovascular safety ion channel panel, Ca. The settings on record: read-out: IC50 Ca; functional activity. It counts as biochemical.
The target of another data set is mGlu5 MPEP site (Rattus norvegicus, UniProt P31424). The experiment in a line: [3H]-methoxyPEPy radioligand displacement. It counts as binding.
Chain of mGlu5 MPEP site (P31424 21-1203): as above
In data set [1] the test system is 68 GPCRs, ion channels and transporters. Description: Ricerca radioligand binding panel. The note with it: at 10 μM; 68 targets.
Data set [2] can be described thus: rat plasma protein binding. It counts as in vitro ADME.
Another data set concerns Na. Description: cardiovascular safety ion channel panel, Na. The format is biochemical. The settings on record: read-out: IC50 Na; functional activity.
Data set [3] is described as follows: human plasma protein binding. The format is in vitro ADME.
[4] abbreviates: membranes isolated from rmGlu5, up to 30 μM compound.

Chain of human mGlu5 (P41594 21-1212): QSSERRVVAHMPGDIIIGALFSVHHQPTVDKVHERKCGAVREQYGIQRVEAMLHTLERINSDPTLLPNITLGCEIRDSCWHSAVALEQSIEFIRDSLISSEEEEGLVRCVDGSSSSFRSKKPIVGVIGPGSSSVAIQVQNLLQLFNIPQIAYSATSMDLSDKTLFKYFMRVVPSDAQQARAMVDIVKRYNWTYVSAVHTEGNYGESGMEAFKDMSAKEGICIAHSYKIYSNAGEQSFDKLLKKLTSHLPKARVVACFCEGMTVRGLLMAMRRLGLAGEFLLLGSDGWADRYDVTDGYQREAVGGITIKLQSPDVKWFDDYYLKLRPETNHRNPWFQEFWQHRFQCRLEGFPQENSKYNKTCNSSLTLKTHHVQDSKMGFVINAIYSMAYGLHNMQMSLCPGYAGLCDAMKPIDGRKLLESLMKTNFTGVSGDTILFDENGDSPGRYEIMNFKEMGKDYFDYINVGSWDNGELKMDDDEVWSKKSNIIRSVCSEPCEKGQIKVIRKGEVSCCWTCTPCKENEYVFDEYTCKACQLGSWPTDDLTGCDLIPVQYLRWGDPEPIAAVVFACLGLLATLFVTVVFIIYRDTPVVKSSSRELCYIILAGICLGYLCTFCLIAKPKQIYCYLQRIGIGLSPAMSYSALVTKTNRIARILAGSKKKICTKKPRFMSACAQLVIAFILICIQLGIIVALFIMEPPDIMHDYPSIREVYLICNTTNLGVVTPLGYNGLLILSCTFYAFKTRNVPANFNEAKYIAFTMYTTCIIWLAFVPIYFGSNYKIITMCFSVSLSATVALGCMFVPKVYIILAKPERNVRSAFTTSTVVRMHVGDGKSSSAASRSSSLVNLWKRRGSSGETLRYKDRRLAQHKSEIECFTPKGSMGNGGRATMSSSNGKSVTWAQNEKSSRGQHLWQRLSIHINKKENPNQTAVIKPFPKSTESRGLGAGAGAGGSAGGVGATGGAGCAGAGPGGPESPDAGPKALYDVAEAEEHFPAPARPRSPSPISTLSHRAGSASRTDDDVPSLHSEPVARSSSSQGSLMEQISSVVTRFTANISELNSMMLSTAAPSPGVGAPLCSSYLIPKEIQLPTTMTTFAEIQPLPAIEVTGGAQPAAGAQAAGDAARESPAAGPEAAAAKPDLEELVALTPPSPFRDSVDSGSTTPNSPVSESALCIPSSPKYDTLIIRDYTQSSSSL

Take `CS(=O)(=O)N(CC(=O)Nc1ccccc1)c1ccccc1Cl` [15a]: on rat mGlu5, the allosteric agonist activity result is listed as “strong allosteric agonist activity” and the “% Glu Max (rmGlu5)” value is 61 % Glu Max. For the same molecule, the “% Glu Max (hmGlU5)” value on human mGlu5 is given as 77 % Glu Max.
On to `CS(=O)(=O)N(CC(=O)Nc1ccc(F)cn1)c1ccccc1Cl` [15b], for which the “% Glu Max (rmGlu5)” value at rat mGlu5 was 66 % Glu Max.
Regarding `CS(=O)(=O)N(CC(=O)Nc1cccnc1F)c1ccccc1Cl` [15c], the “% Glu Max (rmGlu5)” value at rat mGlu5 is given as 64 % Glu Max. Besides, at human mGlu5, the “% Glu Max (hmGlU5)” value is 42 % Glu Max.
One may read the pEC50 as the negative decadic logarithm of the EC50, by convention in mol/L. As to `CS(=O)(=O)N(CC(=O)Nc1cccc(Cl)c1)c1ccccc1Cl` [compound 9], at rat mGlu5, the pEC50 is 7.01, the allosteric agonist activity result is “strong allosteric agonist activity” and the “% Glu Max (rmGlu5)” value was 74 % Glu Max. Also, at rat mGlu5 (rat mGlu5, value for 15a estimated because of agonist activity), the fold shift is 7.9 fold. In addition, on human mGlu5, the “% Glu Max (hmGlU5)” value was 63 % Glu Max.
As usually defined, the pIC50 is the IC50 on a negative log10 scale, so that one unit is a factor of ten. For the molecule `CS(=O)(=O)N(CC(=O)NCC1CC1)c1cc(C(F)(F)F)ccc1Cl` [compound 24], the “mGlu5 PAM activity” value on rat mGlu5 and at human mGlu5 was “moderately potent” in each case. The pIC50 in the data set with Ca and in the data set with Na was less than 5.00 throughout. The “displacement of [3H]-methoxyPEPy” value on mGlu5 MPEP site (in words) was “did not displace”. The “inhibition in Ricerca radioligand binding panel” value in data set [1] is recorded as less than 50 % inhibition. In addition, the “plasma protein binding” value in data set [2] and in data set [3] was “significantly reduced” each time.
In the case of `O=S(=O)(c1ccc(C#Cc2cccc(F)c2)cc1)N1CCOCC1` [compound 25], the “mGlu5 PAM activity” value on rat mGlu5 is “weak to moderately active PAMs”. At mGlu5 MPEP site (setting [4]), the “displacement of [3H]-methoxyPEPy” value is listed as “no displacement”.
Turning to `O=S(=O)(c1ccc(F)cc1)N1CCC[C@H](c2nc(-c3ccc(F)cc3)no2)C1` [compound 26], the “mGlu5 PAM activity” value is “weak to moderately active PAMs” at rat mGlu5 and “weak PAM” at human mGlu5. Moreover, the “displacement of [3H]-methoxyPEPy” value at mGlu5 MPEP site (setting [4]) is “no displacement”.
